Test results from ChEMBL document CHEMBL6182925 (J Med Chem, 2025).
Values after ≈ are worked out from the molar mass of the structure shown. Values joined by “and” are separate entries in the source; they are usually repeats but may differ in a detail not shown here. Equal entries are not always repeated. Active and inactive are the calls of the source. The rule behind the calls is not given here.

Legend:
[1] = Toxicity in athymic BALB/c nude mouse xenografted with human EBC-1 cells assessed as body weight loss at 2 to 60 mg/kg, po bid treated for 10 to 21 days; type: organism-based; details: in vivo, dose lower 2 mg/kg, time lower 10 day, dose upper 60 mg/kg, time upper 21 day
[2] = target: Hepatocyte growth factor receptor (Homo sapiens, UniProt P08581, D1228N); experiment: Inhibition of N-terminal GST-tagged recombinant human c-MET D1228N mutant (956 to end residues) extracted from baculovirus infected Sf9 cells using 5-FAM-KKKKEEIYFFF-CONH2 as substrate preincubated for 30 mins followed by ATP addition measured after 60 mins by fluorescence-based microfluidic mobility shift assay
[3] = Clearance in male Sprague-Dawley rat at 3 mg/kg, iv; type: ADME, organism-based; details: in vivo
EBC-1 [4] = experiment: Antitumor activity against human EBC-1 cells xenografted in athymic BALB/c nude mouse at 20 mg/kg, po bid treated for 21 days relative to control; type: functional; details: EBC-1, 504 h, time 21 day, read-out: TGI
BaF3 [5] = experiment: cells; details: Mus musculus, BaF3, 72 h
BaF3 [6] = experiment: cells; details: Mus musculus, BaF3, 72 h; remark: listed apart in the source
Mus musculus = experiment: In vivo inhibition of MET phosphorylation in human EBC-1 cells xenografted in athymic BALB/c nude mouse at 20 to 60 mg/kg, po measured after 12 hrs post-dose; type: functional, organism-based; details: dose 20-60 mg/kg
cells = details: Mus musculus, BaF3/TRP-Met, 72 h
[7] = Toxicity in athymic BALB/c nude mouse allografted with mouse BaF3 cells harboring TPR-D1228N mutant assessed as body weight loss at 2 to 60 mg/kg, po bid treated for 10 to 21 days; type: organism-based; details: in vivo, dose lower 2 mg/kg, time lower 10 day, dose upper 60 mg/kg, time upper 21 day
[8] = system: Hepatocyte growth factor receptor (Homo sapiens), P08581 [Y1235D]; experiment: Inhibition of c-MET Y1235D mutant (unknown origin) at 100 nM in presence of ATP by HotSpot Kinome Selectivity analysis
Chain of Hepatocyte growth factor receptor (Homo sapiens), P08581 [Y1235D] (P08581 whole entry Y1235D): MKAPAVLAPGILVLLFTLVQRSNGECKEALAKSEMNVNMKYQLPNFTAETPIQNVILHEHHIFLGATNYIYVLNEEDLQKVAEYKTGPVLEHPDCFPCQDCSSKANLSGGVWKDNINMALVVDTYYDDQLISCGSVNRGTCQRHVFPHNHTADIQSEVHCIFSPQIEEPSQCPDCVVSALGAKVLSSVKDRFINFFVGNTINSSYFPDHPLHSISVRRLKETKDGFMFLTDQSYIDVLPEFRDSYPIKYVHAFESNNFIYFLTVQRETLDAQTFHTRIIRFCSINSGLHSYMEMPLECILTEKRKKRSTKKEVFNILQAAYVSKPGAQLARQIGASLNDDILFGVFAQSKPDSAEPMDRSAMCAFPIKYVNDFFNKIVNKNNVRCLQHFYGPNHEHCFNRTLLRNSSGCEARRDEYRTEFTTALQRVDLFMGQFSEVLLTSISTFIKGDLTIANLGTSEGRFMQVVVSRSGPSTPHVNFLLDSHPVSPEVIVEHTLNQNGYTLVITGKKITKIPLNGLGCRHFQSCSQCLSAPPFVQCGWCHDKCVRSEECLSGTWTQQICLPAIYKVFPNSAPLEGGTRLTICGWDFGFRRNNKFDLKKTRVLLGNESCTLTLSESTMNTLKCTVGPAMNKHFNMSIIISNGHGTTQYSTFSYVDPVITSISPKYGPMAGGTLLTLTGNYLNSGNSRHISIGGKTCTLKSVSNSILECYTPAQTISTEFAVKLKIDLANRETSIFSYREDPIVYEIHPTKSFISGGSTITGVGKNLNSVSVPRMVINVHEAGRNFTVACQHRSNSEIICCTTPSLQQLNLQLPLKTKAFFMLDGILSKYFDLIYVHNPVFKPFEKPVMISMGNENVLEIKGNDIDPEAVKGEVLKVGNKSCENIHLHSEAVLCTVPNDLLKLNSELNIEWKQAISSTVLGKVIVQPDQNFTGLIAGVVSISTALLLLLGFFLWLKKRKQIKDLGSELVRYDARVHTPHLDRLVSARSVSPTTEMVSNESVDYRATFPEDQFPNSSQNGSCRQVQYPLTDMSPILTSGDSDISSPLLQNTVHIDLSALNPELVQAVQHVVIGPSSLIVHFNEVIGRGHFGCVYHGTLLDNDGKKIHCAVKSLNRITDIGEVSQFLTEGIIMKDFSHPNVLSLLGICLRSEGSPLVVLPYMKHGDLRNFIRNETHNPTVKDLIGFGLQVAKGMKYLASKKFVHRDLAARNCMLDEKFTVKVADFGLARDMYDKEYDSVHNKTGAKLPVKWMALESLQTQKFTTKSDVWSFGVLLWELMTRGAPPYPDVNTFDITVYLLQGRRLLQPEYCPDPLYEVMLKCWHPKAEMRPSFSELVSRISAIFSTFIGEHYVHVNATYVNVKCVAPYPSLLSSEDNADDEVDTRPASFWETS

EBC-1 [9] = experiment: Antitumor activity against human EBC-1 cells xenografted in athymic BALB/c nude mouse at 60 mg/kg, po bid treated for 21 days relative to control; type: functional; details: EBC-1, 504 h, time 21 day, read-out: TGI
EBC-1 [10] = experiment: Antitumor activity against human EBC-1 cells xenografted in athymic BALB/c nude mouse at 2 mg/kg, po bid treated for 21 days relative to control; type: functional; details: EBC-1, 504 h, time 21 day, read-out: TGI
BaF3 [11] = experiment: cells; details: Mus musculus, BaF3, 72 h; remark: listed apart in the source
[12] = AUCfree in dog measured for 28 days; type: ADME, Canis lupus familiaris; details: in vivo, 672 h, time 28 day
BaF3 [13] = system: BaF3
[14] = target: 5-hydroxytryptamine receptor 2B (Homo sapiens) (UniProt P41595); experiment: Inhibition of 5-HT2B receptor (unknown origin) at 10 uM by CEREP analysis relative to control
Chain of 5-hydroxytryptamine receptor 2B (Homo sapiens) (P41595 whole entry): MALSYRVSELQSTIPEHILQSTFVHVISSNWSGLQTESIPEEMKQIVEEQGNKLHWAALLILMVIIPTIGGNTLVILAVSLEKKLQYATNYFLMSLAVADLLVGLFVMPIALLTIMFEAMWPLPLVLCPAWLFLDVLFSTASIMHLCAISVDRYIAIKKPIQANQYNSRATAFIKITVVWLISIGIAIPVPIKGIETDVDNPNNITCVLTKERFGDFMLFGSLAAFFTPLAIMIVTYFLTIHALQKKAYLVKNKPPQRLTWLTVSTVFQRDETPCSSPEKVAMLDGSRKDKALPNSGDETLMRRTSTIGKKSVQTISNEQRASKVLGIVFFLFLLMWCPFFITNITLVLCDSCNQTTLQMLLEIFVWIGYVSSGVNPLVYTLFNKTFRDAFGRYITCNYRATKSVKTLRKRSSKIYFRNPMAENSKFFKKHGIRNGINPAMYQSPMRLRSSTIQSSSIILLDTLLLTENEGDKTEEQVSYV

BaF3 [15] = experiment: cells; details: Mus musculus, BaF3, 72 h; remark: listed apart in the source
EBC-1 [16] = experiment: Antitumor activity against human EBC-1 cells xenografted in athymic BALB/c nude mouse at 6 mg/kg, po bid treated for 21 days relative to control; type: functional; details: EBC-1, 504 h, time 21 day, read-out: TGI
PXR = PXR (Homo sapiens, UniProt O75469); experiment: Induction of PXR (unknown origin) assessed as fold increase in activity at 1 uM relative to control; type: toxicity; details: read-out: FC
[17] = Antitumor activity against human LU2503 cells xenografted in athymic BALB/c nude mouse at 6 mg/kg, po bid treated for 14 days relative to control; type: functional; details: LU2503, 336 h, time 14 day, read-out: TGI
Homo sapiens = species on record: Homo sapiens; experiment: Inhibition of c-MET Y1230 mutant (unknown origin) at 100 nM in presence of ATP by HotSpot Kinome Selectivity analysis
[18] = Clearance in female Balb/c mouse at 1 mg/kg, iv; type: ADME, organism-based; details: in vivo
[19] = target: Sodium-dependent serotonin transporter (Homo sapiens) (UniProt P31645); experiment: Inhibition of SERT (unknown origin) at 10 uM by CEREP analysis relative to control
Chain of Sodium-dependent serotonin transporter (Homo sapiens) (P31645 whole entry, looked up): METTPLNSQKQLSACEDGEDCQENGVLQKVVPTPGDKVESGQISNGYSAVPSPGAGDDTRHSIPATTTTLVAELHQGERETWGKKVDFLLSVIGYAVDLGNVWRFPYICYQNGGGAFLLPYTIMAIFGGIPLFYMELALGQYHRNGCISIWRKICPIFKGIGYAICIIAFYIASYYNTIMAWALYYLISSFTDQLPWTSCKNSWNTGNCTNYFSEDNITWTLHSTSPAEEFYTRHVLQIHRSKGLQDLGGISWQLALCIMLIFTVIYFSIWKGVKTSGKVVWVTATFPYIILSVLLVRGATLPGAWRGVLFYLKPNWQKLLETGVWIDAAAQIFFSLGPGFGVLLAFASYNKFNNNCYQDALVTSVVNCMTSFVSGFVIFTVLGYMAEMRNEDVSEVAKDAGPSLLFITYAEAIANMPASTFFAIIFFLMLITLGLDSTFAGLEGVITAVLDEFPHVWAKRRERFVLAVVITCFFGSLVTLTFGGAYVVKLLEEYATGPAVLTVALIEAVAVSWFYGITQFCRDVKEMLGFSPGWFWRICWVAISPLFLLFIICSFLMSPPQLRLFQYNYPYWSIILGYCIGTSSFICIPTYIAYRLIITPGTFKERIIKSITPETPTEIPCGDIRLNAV

BaF3 [20] = experiment: cells; details: Mus musculus, BaF3, 72 h; remark: listed apart in the source
BaF3 [21] = experiment: Antitumor activity against mouse BaF3 cells harboring TPR-D1228N mutant cells allografted in athymic BALB/c nude mouse at 6 mg/kg, po bid treated for 10 days relative to control; type: functional; details: BaF3, 240 h, time 10 day, read-out: TGI
[22] = target: T1, Alpha-2A adrenergic receptor (Homo sapiens) (UniProt P08913); experiment: Inhibition of alpha 2A adrenergic receptor (unknown origin) at 10 uM by CEREP analysis relative to control
T1 sequence (whole entry): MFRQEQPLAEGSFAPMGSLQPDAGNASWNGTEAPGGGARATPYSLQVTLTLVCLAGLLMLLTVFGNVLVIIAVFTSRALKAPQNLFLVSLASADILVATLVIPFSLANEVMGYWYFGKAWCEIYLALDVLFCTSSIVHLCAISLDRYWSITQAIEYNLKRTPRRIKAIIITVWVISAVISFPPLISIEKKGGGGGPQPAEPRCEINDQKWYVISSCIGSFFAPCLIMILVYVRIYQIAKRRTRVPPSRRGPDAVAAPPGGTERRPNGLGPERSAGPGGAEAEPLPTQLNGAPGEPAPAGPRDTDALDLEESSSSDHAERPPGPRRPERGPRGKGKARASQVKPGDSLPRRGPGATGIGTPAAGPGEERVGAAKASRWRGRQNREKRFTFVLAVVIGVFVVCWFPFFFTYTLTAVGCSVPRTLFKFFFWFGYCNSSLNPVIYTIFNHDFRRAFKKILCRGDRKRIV

BaF3 [23] = experiment: cells; details: Mus musculus, BaF3, 72 h; remark: listed apart in the source
[24] = Oral bioavailability in male Sprague-Dawley rat at 10 mg/kg; type: ADME, organism-based; details: in vivo
[25] = target: Hepatocyte growth factor receptor (Homo sapiens, UniProt P08581); experiment: Inhibition of N-terminal GST-tagged wild-type human c-MET (956 to 1390 residues) extracted from baculovirus infected Sf21 cells using 5-FAM-KKKKEEIYFFF-CONH2 as substrate preincubated for 30 mins followed by ATP addition measured after 60 mins by fluorescence-based microfluidic mobility shift assay
Chain of Hepatocyte growth factor receptor (Homo sapiens, UniProt P08581) (P08581 whole entry, the tested form may be a part): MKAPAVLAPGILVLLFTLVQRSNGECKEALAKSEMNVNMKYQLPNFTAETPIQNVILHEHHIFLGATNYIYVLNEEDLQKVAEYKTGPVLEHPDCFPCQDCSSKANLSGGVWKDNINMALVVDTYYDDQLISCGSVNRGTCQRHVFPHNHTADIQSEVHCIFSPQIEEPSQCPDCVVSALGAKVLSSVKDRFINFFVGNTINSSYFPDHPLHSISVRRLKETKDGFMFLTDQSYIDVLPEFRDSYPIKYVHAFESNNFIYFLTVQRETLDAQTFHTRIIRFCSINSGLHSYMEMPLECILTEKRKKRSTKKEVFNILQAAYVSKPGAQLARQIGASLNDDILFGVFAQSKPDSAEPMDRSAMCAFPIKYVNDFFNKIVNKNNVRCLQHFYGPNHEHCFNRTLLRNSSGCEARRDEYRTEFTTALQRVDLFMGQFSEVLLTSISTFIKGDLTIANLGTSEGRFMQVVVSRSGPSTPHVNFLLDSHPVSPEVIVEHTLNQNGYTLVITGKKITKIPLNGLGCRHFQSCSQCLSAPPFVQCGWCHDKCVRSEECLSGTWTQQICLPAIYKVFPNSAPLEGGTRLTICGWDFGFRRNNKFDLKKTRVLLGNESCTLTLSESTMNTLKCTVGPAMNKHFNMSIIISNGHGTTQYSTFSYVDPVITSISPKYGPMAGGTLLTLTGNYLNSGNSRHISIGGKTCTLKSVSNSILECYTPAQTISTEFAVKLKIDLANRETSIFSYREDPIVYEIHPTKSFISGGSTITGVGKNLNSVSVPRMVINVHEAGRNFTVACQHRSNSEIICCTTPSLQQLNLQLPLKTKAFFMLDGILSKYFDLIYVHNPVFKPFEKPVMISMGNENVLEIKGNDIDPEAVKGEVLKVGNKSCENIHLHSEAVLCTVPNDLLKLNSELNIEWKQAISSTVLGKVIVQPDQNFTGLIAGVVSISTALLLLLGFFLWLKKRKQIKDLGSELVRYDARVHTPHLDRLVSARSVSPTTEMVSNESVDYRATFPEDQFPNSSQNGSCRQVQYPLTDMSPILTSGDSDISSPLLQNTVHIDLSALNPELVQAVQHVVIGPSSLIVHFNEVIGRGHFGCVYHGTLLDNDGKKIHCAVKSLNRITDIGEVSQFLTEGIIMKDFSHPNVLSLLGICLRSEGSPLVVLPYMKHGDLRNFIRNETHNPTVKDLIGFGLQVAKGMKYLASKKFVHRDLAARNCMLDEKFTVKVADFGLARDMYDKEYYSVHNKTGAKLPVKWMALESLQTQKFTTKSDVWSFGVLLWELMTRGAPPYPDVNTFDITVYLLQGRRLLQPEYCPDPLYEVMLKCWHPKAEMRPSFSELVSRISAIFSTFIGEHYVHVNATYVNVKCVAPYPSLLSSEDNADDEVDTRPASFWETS

AhR = AhR (Homo sapiens, UniProt P35869); experiment: Induction of AhR (unknown origin) assessed as fold increase in activity at 1 uM relative to control; type: toxicity; details: read-out: FC
Chain of AhR (P35869 whole entry): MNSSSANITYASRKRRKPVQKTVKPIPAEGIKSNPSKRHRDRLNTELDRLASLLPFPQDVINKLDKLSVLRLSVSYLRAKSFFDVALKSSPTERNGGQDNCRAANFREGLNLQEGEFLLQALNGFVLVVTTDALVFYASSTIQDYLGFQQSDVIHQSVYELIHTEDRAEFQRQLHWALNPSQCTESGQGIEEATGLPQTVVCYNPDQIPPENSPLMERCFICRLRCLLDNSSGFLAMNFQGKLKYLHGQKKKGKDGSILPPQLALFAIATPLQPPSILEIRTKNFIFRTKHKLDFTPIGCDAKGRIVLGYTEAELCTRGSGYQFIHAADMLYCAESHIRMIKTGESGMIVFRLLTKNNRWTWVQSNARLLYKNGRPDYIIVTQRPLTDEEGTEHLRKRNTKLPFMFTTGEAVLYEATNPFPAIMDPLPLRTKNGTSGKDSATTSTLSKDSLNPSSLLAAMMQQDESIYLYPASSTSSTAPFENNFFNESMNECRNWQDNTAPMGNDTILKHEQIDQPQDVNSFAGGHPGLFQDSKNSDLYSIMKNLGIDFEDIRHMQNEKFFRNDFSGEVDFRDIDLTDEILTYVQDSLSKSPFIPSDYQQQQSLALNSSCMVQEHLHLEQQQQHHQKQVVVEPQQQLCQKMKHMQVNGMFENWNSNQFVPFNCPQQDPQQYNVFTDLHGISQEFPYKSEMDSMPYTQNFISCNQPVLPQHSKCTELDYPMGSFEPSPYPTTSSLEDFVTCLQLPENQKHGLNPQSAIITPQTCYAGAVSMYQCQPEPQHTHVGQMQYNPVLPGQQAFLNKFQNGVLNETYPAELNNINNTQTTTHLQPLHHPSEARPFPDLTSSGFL

[26] = Antitumor activity against human LU2503 cells xenografted in athymic BALB/c nude mouse at 20 mg/kg, po bid treated for 14 days relative to control; type: functional; details: LU2503, 336 h, time 14 day, read-out: TGI
[27] = Kinetic solubility of compound at pH 2; type: physicochemical; details: buffer, read-out: Kinetic_solubility
[28] = Toxicity in athymic BALB/c nude mouse xenografted with human LU2503 cells assessed as body weight loss at 2 to 60 mg/kg, po bid treated for 10 to 21 days; type: organism-based; details: in vivo, dose lower 2 mg/kg, time lower 10 day, dose upper 60 mg/kg, time upper 21 day
BaF3 [29] = experiment: Antitumor activity against mouse BaF3 cells harboring TPR-D1228N mutant cells allografted in athymic BALB/c nude mouse at 20 mg/kg, po bid treated for 10 days relative to control; type: functional; details: BaF3, 240 h, time 10 day, read-out: TGI
[30] = Toxicity in rat assessed as drug tolerance measured for 28 days; details: in vivo, 672 h, time 28 day
[31] = AUClast in male Beagle dog at 10 mg/kg, po; type: ADME, organism-based, Canis lupus familiaris; details: in vivo

**Q.** For COc1cc2nccc(Oc3c(F)cc(NC(=O)c4cnccc4OC)cc3F)c2cc1O[C@@H](C)CO, which Activity [1] is on record?
**A.** Non-toxic

**Q.** What about the IC50 [2] of the same compound?
**A.** 0.2 nM

**Q.** And the clearance [3]?
**A.** 11.2 mL/min/kg

**Q.** And the inhibition in vivo at 20 mg/kg (EBC-1 [4])?
**A.** 88%

**Q.** And the EC50 (BaF3 [5])?
**A.** 8.6 nM

**Q.** What about the EC50 (BaF3 [6]) of the same compound?
**A.** 2.5 nM

**Q.** And the inhibition (Mus musculus)?
**A.** Active

**Q.** And the EC50 (cells)?
**A.** 11 nM

**Q.** And the Activity [7]?
**A.** Non-toxic

**Q.** What about the inhibition [8] of the same compound?
**A.** 85%

**Q.** What about the inhibition in vivo at 60 mg/kg (EBC-1 [9]) of the same compound?
**A.** 110%

**Q.** And the inhibition in vivo at 2 mg/kg (EBC-1 [10])?
**A.** 25%

**Q.** What about the EC50 (BaF3 [11]) of the same compound?
**A.** 3.2 nM

**Q.** What about the fAUC [12] of the same compound?
**A.** 5100 ng·h/mL

**Q.** What about the EC50 (BaF3 [13]) of the same compound?
**A.** 11 nM and 5.1 nM

**Q.** What about the inhibition [14] of the same compound?
**A.** 48%

**Q.** What about the EC50 (BaF3 [15]) of the same compound?
**A.** 0.7 nM

**Q.** And the inhibition in vivo at 6 mg/kg (EBC-1 [16])?
**A.** 52%

**Q.** What about the fold induction at 1 µM (PXR) of the same compound?
**A.** < 1.5

**Q.** And the inhibition in vivo at 6 mg/kg [17]?
**A.** 77%

**Q.** And the inhibition (Homo sapiens)?
**A.** 0%

**Q.** What about the clearance [18] of the same compound?
**A.** 14.3 mL/min/kg

**Q.** And the inhibition [19]?
**A.** 1%

**Q.** What about the EC50 (BaF3 [20]) of the same compound?
**A.** 51 nM

**Q.** What about the inhibition in vivo at 6 mg/kg (BaF3 [21]) of the same compound?
**A.** 44%

**Q.** And the inhibition [22]?
**A.** 6%

**Q.** What about the EC50 (BaF3 [23]) of the same compound?
**A.** 13 nM

**Q.** What about the bioavailability [24] of the same compound?
**A.** 100%

**Q.** And the IC50 [25]?
**A.** 0.2 nM

**Q.** And the fold induction at 1 µM (AhR)?
**A.** < 1.5

**Q.** What about the inhibition in vivo at 20 mg/kg [26] of the same compound?
**A.** 110%

**Q.** What about the solubility kinetic [27] of the same compound?
**A.** 288 µM (≈ 147 µg/mL)

**Q.** What about the Activity [28] of the same compound?
**A.** Non-toxic

**Q.** What about the inhibition in vivo at 20 mg/kg (BaF3 [29]) of the same compound?
**A.** 89%

**Q.** What about the Activity [30] of the same compound?
**A.** Non-toxic

**Q.** And the AUC(0-t) [31]?
**A.** 26400 ng·h/mL
